# From patent US20060135773A1, “Trisubstituted nitrogen modulators of tyrosine phosphatases” (priority 2004, published 2006)
# Tested on: not given
# Experiment: not given
# Settings: not given
row,melting point [°C],Compound
1,170 to 172,"O=P(O)(O)C(F)(F)c1ccc(CN(Cc2ccc(C(F)(F)P(=O)(O)O)cc2)S(=O)(=O)c2ccccc2Cl)cc1 [Compound 5, {[4-({(2-Chloro-benzenesulfonyl)-[4-(difluoro-phosphono-methyl)-benzyl]-amino}-methyl)-phenyl]-difluoro-methyl}-phosphonic acid]"
2,181 to 183,"O=P(O)(O)C(F)(F)c1ccc(CN(Cc2ccc(C(F)(F)P(=O)(O)O)cc2)S(=O)(=O)CCc2ccccc2)cc1 [Compound 9, [(4-{[[4-(Difluoro-phosphono-methyl)-benzyl]-(2-phenyl-ethanesulfonyl)-amino]-methyl}-phenyl)-difluoro-methyl]-phosphonic acid]"

# Target: T1, PTP-1B (Homo sapiens, UniProt P18031)
# T1 construct: PTP-1B (purified, 1 mg/mL) as a 1:250 dilution
# T1 sequence (P18031 1-321 limits assumed): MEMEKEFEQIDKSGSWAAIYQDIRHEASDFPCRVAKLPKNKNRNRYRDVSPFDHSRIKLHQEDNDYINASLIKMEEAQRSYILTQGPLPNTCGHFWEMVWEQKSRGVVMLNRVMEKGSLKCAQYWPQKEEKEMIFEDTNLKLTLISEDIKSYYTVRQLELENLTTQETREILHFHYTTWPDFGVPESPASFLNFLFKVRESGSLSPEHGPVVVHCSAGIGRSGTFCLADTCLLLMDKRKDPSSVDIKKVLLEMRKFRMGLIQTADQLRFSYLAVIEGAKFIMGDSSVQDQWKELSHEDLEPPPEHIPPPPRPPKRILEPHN
# Experiment: pNPP tyrosine phosphatase inhibition assay, PTP-1B
# Format: biochemical
# Settings: pNPP assay, PTP-1B; read-out: Activity Class (IC50 ranges)
# Procedure, shortened: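 Test compounds were screened at two final levels, 31.3 and 10 µM, against 4 µg/mL purified PTP-1B. The substrate was 10 mM p-nitrophenyl phosphate, with incubation for 10 min at 30°C before a K2CO3 quench. Activity was taken from A405.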
row,Compound,IC50 [nM]
1,"O=P(O)(O)C(F)(F)c1ccc(CN(Cc2ccc(C(F)(F)P(=O)(O)O)cc2)S(=O)(=O)c2ccccc2Cl)cc1 [Compound 5, {[4-({(2-Chloro-benzenesulfonyl)-[4-(difluoro-phosphono-methyl)-benzyl]-amino}-methyl)-phenyl]-difluoro-methyl}-phosphonic acid]",100 to 249
2,"O=P(O)(O)C(F)(F)c1ccc(CN(Cc2ccc(C(F)(F)P(=O)(O)O)cc2)S(=O)(=O)CCc2ccccc2)cc1 [Compound 9, [(4-{[[4-(Difluoro-phosphono-methyl)-benzyl]-(2-phenyl-ethanesulfonyl)-amino]-methyl}-phenyl)-difluoro-methyl]-phosphonic acid]",250 to 499
3,"CCOc1cccc(-c2ccccc2CN(Cc2ccc(C(F)(F)P(=O)(O)O)c(Cl)c2)S(=O)(=O)c2ccccc2OC)c1 [Compound 217, [(2-Chloro-4-{[(3′-ethoxy-biphenyl-2-ylmethyl)-(2-methoxy-benzenesulfonyl)-amino]-methyl}-phenyl)-difluoro-methyl]-phosphonic acid]",< 99
4,"CCOC(=O)[C@H](C)NP(=O)(O)C(F)(F)c1ccc(CN(Cc2ccc(-c3cccc(C#N)c3)cc2)S(=O)(=O)c2ccccc2OC)cc1Cl [Compound 219, [S]-N-[(2-Chloro-4-{[(3′-cyano-biphenyl-4-ylmethyl)-(2-methoxy-benzenesulfonyl)-amino]-methyl}-phenyl)-difluoro-methyl]-phosphonyl-(ethyl alaninate)]",250 to 499
5,"COc1ccccc1S(=O)(=O)N(Cc1ccc(-c2ccc(O)c(C(=O)O)c2)cc1)Cc1ccc(OCC(=O)O)c(Cl)c1 [Compound 222, 4′-{[(4-Carboxymethoxy-3-chloro-benzyl)-(2-methoxy-benzenesulfonyl)-amino]-methyl}-4-hydroxy-biphenyl-3-carboxylic acid]",> 25000
6,"COc1ccccc1S(=O)(=O)N(Cc1ccc(N(CC(C)C(=O)O)C(=O)C(=O)O)cc1)Cc1ccc(N(CC(C)C(=O)O)C(=O)C(=O)O)cc1 (stereo not shown) [Compound 223, 3-[(4-{[{4-[(2-Carboxy-propyl)-oxalyl-amino]-benzyl}-(2-methoxy-benzenesulfonyl)-amino]-methyl}-phenyl)-oxalyl-amino]-2-methyl-propionic acid]",> 25000
7,"COc1ccccc1S(=O)(=O)N(Cc1ccc(OCC(=O)O)c(C(=O)O)c1)Cc1ccccc1-c1ccccc1 [Compound 224, 5-{[Biphenyl-2-ylmethyl-(2-methoxy-benzenesulfonyl)-amino]-methyl}-2-carboxymethoxy-benzoic acid]",> 25000
8,"COc1ccccc1S(=O)(=O)N(Cc1ccc(-c2cccc(C#N)c2)cc1)Cc1ccc(C(F)(F)P(=O)(OCOC(=O)C(C)(C)C)OCOC(=O)C(C)(C)C)c(Cl)c1 [Compound 226, 2,2-Dimethyl-propionic acid [(2-chloro-4-{[(3′-cyano-biphenyl-4-ylmethyl)-(2-methoxy-benzenesulfonyl)-amino]-methyl}-phenyl)-difluoro-methyl]-(2,2-dimethyl-propionyloxymethoxy)-phosphinoyloxymethyl ester]",> 25000
9,"COc1ccccc1S(=O)(=O)N(Cc1ccc(-c2cccc(C#N)c2)cc1)Cc1ccc(C(F)(F)P(=O)(O)OCOC(=O)C(C)(C)C)c(Cl)c1 [Compound 227, 2,2-Dimethyl-propionic acid [(2-chloro-4-{[(3′-cyano-biphenyl-4-ylmethyl)-(2-methoxy-benzenesulfonyl)-amino]-methyl}-phenyl)-difluoro-methyl]-hydroxy-phosphinoyloxymethyl ester]",> 25000
10,"O=P(O)(O)C(F)(F)c1ccc(CN(Cc2ccccc2-c2ccccc2)S(=O)(=O)c2cnccc2I)cc1Cl [Compound 230, [(4-{[Biphenyl-2-ylmethyl-(4-iodo-pyridine-3-sulfonyl)-amino]-methyl}-2-chloro-phenyl)-difluoro-methyl]-phosphonic acid]",100 to 249
11,"COC(=O)c1ccc(CN(Cc2ccc(C(F)(F)P(=O)(O)O)c(Cl)c2)S(=O)(=O)c2ccccc2OC)cc1 [Compound 231, 4-{[[3-Chloro-4-(difluoro-phosphono-methyl)-benzyl]-(2-methoxy-benzenesulfonyl)-amino]-methyl}-benzoic acid methyl ester]",250 to 499
12,"O=P(O)(O)C(F)(F)c1ccc(CN(Cc2ccc(C(F)(F)P(=O)(O)O)c(Cl)c2)C2CCc3ccccc32)cc1Cl (stereo not shown) [Compound 232, {[2-Chloro-4-({[3-chloro-4-(difluoro-phosphono-methyl)-benzyl]-indan-1-yl-amino}-methyl)-phenyl]-difluoro-methyl}-phosphonic acid]",250 to 499
13,"COc1ccccc1S(=O)(=O)N(Cc1ccc(C(=O)O)cc1)Cc1ccc(C(F)(F)P(=O)(O)O)c(Cl)c1 [Compound 233, 4-{[[3-Chloro-4-(difluoro-phosphono-methyl)-benzyl]-(2-methoxy-benzenesulfonyl)-amino]-methyl}-benzoic acid]",100 to 249
14,"COC(=O)c1ccc(CN(Cc2ccc(C(F)(F)P(=O)(O)O)c(Cl)c2)S(=O)(=O)c2ccccc2)cc1 [Compound 234, 4-({Benzenesulfonyl-[3-chloro-4-(difluoro-phosphono-methyl)-benzyl]-amino}-methyl)-benzoic acid methyl ester]",250 to 499
15,"O=C(O)c1ccc(CN(Cc2ccc(C(F)(F)P(=O)(O)O)c(Cl)c2)S(=O)(=O)c2ccccc2)cc1 [Compound 235, 4-({Benzenesulfonyl-[3-chloro-4-(difluoro-phosphono-methyl)-benzyl]-amino}-methyl)-benzoic acid]",250 to 499
16,(4-{[(4-Cyano-benzyl)-(2-methoxy-benzenesulfonyl)-amino]-methyl}-phenyl)-difluoro-acetic acid [Compound 130],> 25000

row,Compound,IC50 [nM]
1,Methyl 2-(3-{4-[({[4-(difluorophosphonomethyl)-3-chlorophenyl]methyl}[(2-methoxyphenyl)sulfonyl]amino)methyl]phenyl}phenyl)acetate [Compound 191],< 99
2,Methyl 3-{4-[({[4-(difluorophosphonomethyl)-3-chlorophenyl]methyl}[(2-methoxyphenyl)sulfonyl]amino)methyl]phenyl}-5-bromobenzoate [Compound 194],250 to 499
3,Methyl 5-{4-[({[4-(difluorophosphonomethyl)-3-chlorophenyl]methyl}[(2-methoxyphenyl)sulfonyl]amino)methyl]phenyl}-2-methoxybenzoate [Compound 205],100 to 249
4,[(2-Chloro-4-{[(2-chloro-4-fluoro-benzenesulfonyl)-(3′-cyano-biphenyl-4-ylmethyl)-amino]-methyl}-phenyl)-difluoro-methyl]-phosphonic acid [Compound 164],< 99
5,[(2-Chloro-4-{[(4′-cyano-biphenyl-4-ylmethyl)-(2-methoxy-benzenesulfonyl)-amino]-methyl}-phenyl)-difluoro-methyl]-phosphonic acid [Compound 157],100 to 249
6,[(4-{[(3′-Carbamoyl-biphenyl-2-ylmethyl)-(2-methoxy-benzenesulfonyl)-amino]-methyl}-2-chloro-phenyl)-difluoro-methyl]-phosphonic acid [Compound 187],< 99
7,{[4-(difluorophosphonomethyl)-3-chlorophenyl]methyl}(cycloheptylmethyl)[(2-methoxyphenyl)sulfonyl]amine [Compound 202],100 to 249
8,{[4-(difluorophosphonomethyl)-3-chlorophenyl]methyl}(cyclohexylmethyl)[(2-methoxyphenyl)sulfonyl]amine [Compound 203],250 to 499
9,{[4-(difluorophosphonomethyl)-3-chlorophenyl]methyl}[(2 methoxyphenyl)sulfonyl]{[2-(3-methylthiophenyl)phenyl]methyl}amine [Compound 206],< 99
10,"{[4-(difluorophosphonomethyl)-3-chlorophenyl]methyl}[(2-(2,3-dihydrobenzo[b]furan-5-yl)phenyl)methyl][(2-methoxyphenyl)sulfonyl]amine [Compound 204]",< 99
11,{[4-(difluorophosphonomethyl)-3-chlorophenyl]methyl}[(2-ethoxyphenyl)methyl][(2-methoxyphenyl)sulfonyl]amine [Compound 212],250 to 499
12,{[4-(difluorophosphonomethyl)-3-chlorophenyl]methyl}[(2-methoxyphenyl)sulfonyl](2-piperidylmethyl)amine [Compound 213],2500 to 25000
13,{[4-(difluorophosphonomethyl)-3-chlorophenyl]methyl}[(2-methoxyphenyl)sulfonyl](3-piperidylmethyl)amine [Compound 209],2500 to 25000
14,{[4-(difluorophosphonomethyl)-3-chlorophenyl]methyl}[(2-methoxyphenyl)sulfonyl]{[2-(4-methylphenyl)phenyl]methyl}amine [Compound 198],< 99
15,{[4-(difluorophosphonomethyl)-3-chlorophenyl]methyl}{[2-(3-ethylphenyl)phenyl]methyl}[(2-methoxyphenyl)sulfonyl]amine [Compound 196],100 to 249
16,{[4-(difluorophosphonomethyl)-3-chlorophenyl]methyl}{[2-(4-methoxyphenyl)phenyl]methyl}[(2-methoxyphenyl)sulfonyl]amine [Compound 190],< 99
